BigSolDB 2.1

Nc1nc2ccc(OC(F)(F)F)cc2s1
solubility (mole fraction)
Settings | 278.15 K | 283.15 K | 288.15 K | 293.15 K | 298.15 K | 303.15 K | 308.15 K | 313.15 K | 318.15 K | 323.15 K
in acetone | 0.371 | 0.379 | 0.387 | 0.4 | 0.414 | 0.425 | 0.437 | 0.449 | 0.464 | 0.477
in ethanol | 0.179 | 0.188 | 0.198 | 0.212 | 0.223 | 0.236 | 0.255 | 0.273 | 0.294 | 0.308
in n-propanol | 0.179 | 0.189 | 0.202 | 0.215 | 0.23 | 0.249 | 0.267 | 0.287 | 0.312 | 0.333
